In ChEMBL document CHEMBL1201862, “PubChem BioAssay data set” (2004):
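Method: 48-hour compound exposure of cells in 96-well plates, five concentrations, linear interpolation of endpoints. GI50 is the concentration that inhibits growth by half.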 Calls of active or inactive are those of the source. Rule as the data show it: active = GI50 up to about 1.1 µM and inactive = higher.

What was measured:
Experiment in all cases: NCI anticancer screen, dose series, 48 h
NCI-H460 = system: NCI-H460
SNB-75 = system: SNB-75
UO-31 = system: UO-31
UACC-257 = system: UACC-257
A549 = system: A549
Malme-3M = system: Malme-3M
SR = system: SR
BT-549 = system: BT-549
NCI-H226 = system: NCI-H226
ACHN = system: ACHN
NCI/ADR-RES = system: NCI/ADR-RES
SF-295 = system: SF-295
OVCAR-8 = system: OVCAR-8
A498 = system: A498
M14 = system: M14
OVCAR-3 = system: OVCAR-3
Hs-578T = system: Hs-578T
SK-OV-3 = system: SK-OV-3
PC-3 = system: PC-3
HT-29 = system: HT-29
K562 = system: K562
NCI-H23 = system: NCI-H23
U-251 = system: U-251
HCT-15 = system: HCT-15
SW-620 = system: SW-620
SF-539 = system: SF-539
CAKI-1 = system: CAKI-1
EKVX = system: EKVX
DU-145 = system: DU-145
RXF 393 = system: RXF 393
SF-268 = system: SF-268
SNB-19 = system: SNB-19
786-0 = system: 786-0
IGROV-1 = system: IGROV-1
MDA-N = system: MDA-N
NCI-H522 = system: NCI-H522
COLO 205 = system: COLO 205
T47D = system: T47D
HOP-92 = system: HOP-92
KM12 = system: KM12
MCF7 = system: MCF7
SK-MEL-5 = system: SK-MEL-5
MOLT-4 = system: MOLT-4
SK-MEL-2 = system: SK-MEL-2
OVCAR-4 = system: OVCAR-4
LOX IMVI = system: LOX IMVI
SN12C = system: SN12C
MDA-MB-435 = system: MDA-MB-435
HOP-62 = system: HOP-62
TK-10 = system: TK-10
OVCAR-5 = system: OVCAR-5
HCC 2998 = system: HCC 2998
RPMI-8226 = system: RPMI-8226
MDA-MB-231 = system: MDA-MB-231
SK-MEL-28 = system: SK-MEL-28
HCT-116 = system: HCT-116
UACC-62 = system: UACC-62
HL-60 = system: HL-60
CCRF-CEM = system: CCRF-CEM

Measured: GI50

c1ccc(CN2CCC3(CC2)SSC2(CCN(Cc4ccccc4)CC2)SS3)cc1
inactive: NCI-H460 > 100 µM | SNB-75 > 100 µM | UO-31 > 100 µM | UACC-257 59.7 µM | A549 > 100 µM | Malme-3M 97.5 µM | SR 83.2 µM | BT-549 > 100 µM | NCI-H226 > 100 µM | ACHN > 100 µM | NCI/ADR-RES > 100 µM | SF-295 > 100 µM | OVCAR-8 > 100 µM | A498 > 100 µM | M14 > 100 µM | OVCAR-3 > 100 µM | Hs-578T > 100 µM | SK-OV-3 > 100 µM | PC-3 > 100 µM | HT-29 27.2 µM | K562 > 100 µM | NCI-H23 79.1 µM | U-251 > 100 µM | SW-620 5.48 µM | SF-539 > 100 µM | CAKI-1 > 100 µM | EKVX 12.9 µM | DU-145 > 100 µM | RXF 393 > 100 µM | SF-268 > 100 µM | SNB-19 > 100 µM | 786-0 > 100 µM | IGROV-1 > 100 µM | MDA-N > 100 µM | NCI-H522 37 µM | COLO 205 64 µM | T47D > 100 µM | HOP-92 > 100 µM | KM12 > 100 µM | MCF7 > 100 µM | SK-MEL-5 57.3 µM | MOLT-4 > 100 µM | SK-MEL-2 > 100 µM | OVCAR-4 > 100 µM | LOX IMVI > 100 µM | SN12C > 100 µM | MDA-MB-435 > 100 µM | HOP-62 > 100 µM | TK-10 > 100 µM | OVCAR-5 > 100 µM | HCC 2998 45.5 µM | RPMI-8226 > 100 µM | MDA-MB-231 > 100 µM | SK-MEL-28 34.9 µM | HCT-116 > 100 µM | UACC-62 > 100 µM
> 100 µM: HCT-15

O=C1CC2(CCC(O)(c3ccco3)C(C(=O)c3ccco3)C2)C(=O)c2ccccc2N1 (configuration not stated)
inactive: NCI-H460 29.5 µM | SNB-75 32.2 µM | UO-31 24.7 µM | UACC-257 > 100 µM | A549 > 100 µM | Malme-3M > 100 µM | SR > 100 µM | BT-549 92 µM | NCI-H226 > 100 µM | NCI/ADR-RES 64.6 µM | SF-295 > 100 µM | OVCAR-8 86.9 µM | A498 > 100 µM | M14 99.5 µM | OVCAR-3 84.7 µM | Hs-578T 55.1 µM | SK-OV-3 > 100 µM | PC-3 54 µM | HT-29 > 100 µM | K562 50.1 µM | NCI-H23 > 100 µM | U-251 > 100 µM | HL-60 27.3 µM | SW-620 > 100 µM | SF-539 > 100 µM | CAKI-1 > 100 µM | EKVX > 100 µM | DU-145 > 100 µM | RXF 393 > 100 µM | SF-268 > 100 µM | IGROV-1 99.1 µM | MDA-N > 100 µM | COLO 205 > 100 µM | T47D 26.1 µM | HOP-92 56.9 µM | MCF7 > 100 µM | SK-MEL-5 51.4 µM | SK-MEL-2 > 100 µM | OVCAR-4 17.3 µM | LOX IMVI 48.6 µM | SN12C > 100 µM | MDA-MB-435 > 100 µM | CCRF-CEM > 10 µM | HOP-62 > 100 µM | TK-10 > 100 µM | OVCAR-5 > 100 µM | HCC 2998 55.8 µM | MDA-MB-231 > 100 µM | HCT-116 88.7 µM | UACC-62 > 100 µM
53.8 µM: HCT-15

O=C1N[C@@H]([C@H](CCCCCO)OC(=O)c2ccccc2)CO1
> 100 µM: HCT-15
inactive: NCI-H460 > 100 µM | SNB-75 > 100 µM | UO-31 > 100 µM | UACC-257 > 100 µM | A549 > 100 µM | SR > 100 µM | BT-549 > 100 µM | NCI-H226 > 100 µM | ACHN > 100 µM | NCI/ADR-RES > 100 µM | SF-295 > 100 µM | OVCAR-8 > 100 µM | A498 > 100 µM | OVCAR-3 > 100 µM | Hs-578T > 100 µM | SK-OV-3 > 100 µM | PC-3 > 100 µM | HT-29 > 100 µM | K562 > 100 µM | U-251 > 100 µM | HL-60 > 100 µM | SW-620 > 100 µM | SF-539 > 100 µM | CAKI-1 > 100 µM | EKVX > 100 µM | DU-145 > 100 µM | RXF 393 > 100 µM | SNB-19 > 100 µM | 786-0 > 100 µM | IGROV-1 > 100 µM | MDA-N > 100 µM | COLO 205 > 10 µM | T47D > 100 µM | HOP-92 > 100 µM | KM12 > 100 µM | MCF7 > 100 µM | SK-MEL-5 > 100 µM | MOLT-4 > 100 µM | SK-MEL-2 > 100 µM | OVCAR-4 > 100 µM | LOX IMVI > 100 µM | SN12C > 100 µM | MDA-MB-435 > 100 µM | CCRF-CEM > 100 µM | HOP-62 > 100 µM | TK-10 > 100 µM | OVCAR-5 > 100 µM | RPMI-8226 > 100 µM | MDA-MB-231 3.18 µM | SK-MEL-28 > 100 µM | HCT-116 > 100 µM | UACC-62 > 100 µM

Cc1ccc2c(c1)C(=O)c1ccc(C)nc1C2=O
inactive: SNB-75 42.4 µM | UO-31 40.9 µM | UACC-257 24 µM | A549 31.8 µM | Malme-3M 8.71 µM | SR 34.1 µM | BT-549 25.6 µM | NCI-H226 > 100 µM | ACHN 35.7 µM | NCI/ADR-RES 24 µM | SF-295 24.6 µM | OVCAR-8 46.9 µM | A498 > 100 µM | M14 31.8 µM | OVCAR-3 6.19 µM | Hs-578T > 100 µM | SK-OV-3 > 100 µM | PC-3 31.8 µM | HT-29 31.8 µM | K562 48.4 µM | NCI-H23 18.9 µM | U-251 32.4 µM | HL-60 26.7 µM | SW-620 27.9 µM | SF-539 23 µM | CAKI-1 41.7 µM | EKVX 40.7 µM | DU-145 49.4 µM | RXF 393 > 100 µM | SF-268 34.9 µM | SNB-19 22.2 µM | 786-0 85.9 µM | IGROV-1 27.7 µM | MDA-N 16.6 µM | NCI-H522 25.9 µM | COLO 205 31.9 µM | T47D 62.7 µM | KM12 27.9 µM | MCF7 27.4 µM | SK-MEL-5 13.2 µM | MOLT-4 > 100 µM | SK-MEL-2 69.2 µM | OVCAR-4 27.7 µM | LOX IMVI 21.9 µM | SN12C 20.4 µM | MDA-MB-435 19.3 µM | CCRF-CEM 58.7 µM | HOP-62 37.8 µM | TK-10 > 100 µM | OVCAR-5 > 100 µM | HCC 2998 31.3 µM | RPMI-8226 43.3 µM | MDA-MB-231 3.98 µM | SK-MEL-28 46.8 µM | HCT-116 19.1 µM | UACC-62 21.9 µM
16.9 µM: HCT-15

COC(=O)C1C/C(=C/N(C)C)C(=S)N1 (configuration not stated)
inactive: NCI-H460 11.6 µM | SNB-75 > 100 µM | UO-31 > 100 µM | UACC-257 > 100 µM | A549 > 100 µM | Malme-3M > 100 µM | SR > 100 µM | BT-549 > 100 µM | ACHN > 100 µM | NCI/ADR-RES > 100 µM | SF-295 > 100 µM | OVCAR-8 > 100 µM | A498 > 100 µM | M14 > 100 µM | OVCAR-3 > 100 µM | Hs-578T > 100 µM | SK-OV-3 > 100 µM | PC-3 > 100 µM | HT-29 > 100 µM | K562 > 100 µM | NCI-H23 > 100 µM | U-251 > 100 µM | SW-620 > 100 µM | CAKI-1 > 100 µM | EKVX > 100 µM | DU-145 > 100 µM | RXF 393 > 100 µM | SF-268 > 100 µM | SNB-19 > 100 µM | 786-0 > 100 µM | IGROV-1 > 100 µM | MDA-N > 100 µM | NCI-H522 > 100 µM | COLO 205 > 100 µM | T47D > 100 µM | HOP-92 54.1 µM | KM12 > 100 µM | MCF7 > 100 µM | SK-MEL-5 > 100 µM | MOLT-4 > 100 µM | SK-MEL-2 > 100 µM | OVCAR-4 > 100 µM | MDA-MB-435 > 100 µM | CCRF-CEM > 100 µM | HOP-62 > 100 µM | TK-10 > 100 µM | OVCAR-5 > 100 µM | HCC 2998 > 100 µM | RPMI-8226 > 100 µM | MDA-MB-231 > 100 µM | SK-MEL-28 > 100 µM | HCT-116 > 100 µM | UACC-62 > 100 µM
> 100 µM: HCT-15
